In article PMC7238188, “Recombinant Peptide Production Platform Coupled with Site-Specific Albumin Conjugation Enables a Convenient Production of Long-Acting Therapeutic Peptide” (Pharmaceutics, 2020):

Experiments:
[1] = system: C57BL/6J mice; test: In vivo intraperitoneal glucose tolerance test (IPGTT); conditions: C57BL/6J male mice, 100 nmol/kg subcutaneous 1 h before glucose 1.5 g/kg i.p., 0-120 min, n = 6
Procedure: We performed in vivo intraperitoneal glucose tolerance tests (IPGTTs) on seven-week-old male C57BL/6J mice, which we purchased from DBL. The mice were randomly divided into five groups (n = 6). The IPGTTs were performed after glucose (1.5 g/kg dose) had been intraperitoneally administered to C57BL/6J male mice that had been fasted for 3 h. We obtained blood samples from the tail of each mouse at the predetermined time using an Accu-Check Guide (Roche Diabetes Care, Indianapolis, IN, USA).

[2] = K34R mutant; cited from earlier work
[3] = target: human GLP-1 receptor (GLP-1R) overexpressed on HEK-293 cells (human) (UniProt P43220)
Sequence of human GLP-1 receptor (GLP-1R) overexpressed on HEK-293 cells (human) (P43220 24-463): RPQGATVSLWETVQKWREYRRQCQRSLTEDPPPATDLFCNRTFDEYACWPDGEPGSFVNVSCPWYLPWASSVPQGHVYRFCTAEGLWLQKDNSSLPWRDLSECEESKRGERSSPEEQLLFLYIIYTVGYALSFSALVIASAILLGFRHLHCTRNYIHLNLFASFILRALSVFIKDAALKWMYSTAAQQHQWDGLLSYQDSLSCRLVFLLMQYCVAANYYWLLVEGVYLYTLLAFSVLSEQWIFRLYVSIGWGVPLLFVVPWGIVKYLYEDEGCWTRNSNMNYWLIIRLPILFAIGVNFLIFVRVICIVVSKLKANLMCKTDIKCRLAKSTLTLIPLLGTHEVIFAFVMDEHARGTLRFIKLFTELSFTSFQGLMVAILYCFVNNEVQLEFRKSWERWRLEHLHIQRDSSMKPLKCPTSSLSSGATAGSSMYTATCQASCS

Row | Molecule | blood glucose profile / blood glucose levels in IPGTT [1] | biological activity compared with wild-type GLP-1 [2] | EC50 of cAMP production in HEK-293 cells overexpressing GLP-1R [3]
1 | CC[C@H](C)[C@H](NC(=O)[C@H](Cc1ccccc1)NC(=O)[C@H](CCC(=O)O)NC(=O)[C@H](CCCCN)NC(=O)[C@H](C)NC(=O)[C@H](C)NC(=O)[C@H](CCC(N)=O)NC(=O)CNC(=O)[C@H](CCC(=O)O)NC(=O)[C@H](CC(C)C)NC(=O)[C@H](Cc1ccc(O)cc1)NC(=O)[C@H](CO)NC(=O)[C@H](CO)NC(=O)[C@@H](NC(=O)[C@H](CC(=O)O)NC(=O)[C@H](CO)NC(=O)[C@@H](NC(=O)[C@H](Cc1ccccc1)NC(=O)[C@@H](NC(=O)CNC(=O)[C@H](CCC(=O)O)NC(=O)[C@H](C)NC(=O)[C@@H](N)Cc1c[nH]cn1)[C@@H](C)O)[C@@H](C)O)C(C)C)C(=O)N[C@@H](C)C(=O)N[C@@H](Cc1c[nH]c2ccccc12)C(=O)N[C@@H](CC(C)C)C(=O)N[C@H](C(=O)N[C@@H](CCCNC(=N)N)C(=O)NCC(=O)N[C@@H](CCCNC(=N)N)C(=O)NCC(=O)O)C(C)C [GLP1_C] | very similar to that of the negative control group | comparable biological activity to that of wild-type GLP-1 | 
2 | GLP1_16HSA (GLP-1 variant conjugated to human serum albumin at position 16) (from UniProt P02768 25-609) |  |  | 700 nM
